# Key:
# [1] = system: rats; experiment: Subacute toxicity, repeated intramuscular injection, rats; assay type: in vivo
# Protocol: (§1) To illustrate this point and in preparation for clinical studies, acute and sub-acute toxicity studies were conducted in animals with Bestim according to conditions of good-laboratory practices. Bestim, prepared as a sterile lyophitized powder in ampoules, was dissolved in sterile 0.9% NaCl solution and injected intramuscularly in all experiments.
# (§2) Subacute Toxicity Studies: In a second set of experiments, Bestim was administered for longer durations, accordingly:
# rats: 1 mg/kg and 100 mg/kg, administered intramuscularly daily for 3 months and for 6 months
# [2] = system: mice; experiment: Acute toxicity, single intramuscular dose, mice; assay type: in vivo
# Protocol: as §1
# (§3) Acute toxicity: Rodents (mice and rats) and dogs were randomized into groups of equal numbers of males and females. Animals were inspected daily for 14 days after a single dose of Bestim (intramuscular):
# (§4) Body weight, overall appearance and behavior were evaluated each day and, at the end of two weeks, macroscopic and histopathological examinations of the internal organs (heart, lungs, pleural and peritoneal cavities, muscles, stomach, small and large intestine, liver, spleen, pancreas, kidneys, bladder, thyroid, brain, skin and testes/ovaries) of all animals were conducted.
# [3] = system: patients with prostatitis caused by Chlamydian infection; experiment: Trial in prostatitis caused by Chlamydian infection; assay type: in vivo, human; details: fourteen treated, 30 control patients
# Protocol: In addition to these studies, a trial was conducted using Bestim for the treatment of prostatitis caused by Chlamydian infection. Fourteen patients were treated with Bestim with 30 control patients.
# [4] = system: dogs; experiment: Acute toxicity, single intramuscular dose, dogs; assay type: in vivo; details: single 500.0 mg/kg intramuscular, 14 days
# Protocol: as §1, §3, §4
# [5] = system: patient with colon cancer; experiment: Case History 1: immunodeficiency after cancer chemotherapy (Patient A); assay type: in vivo, human
# Protocol: Patient A was admitted with the diagnosis of colon cancer. Laboratory confirmed immunodeficiency which appeared as a complication of the main illness. Bestim preparation was applied by 5 daily intramuscular injections of 0.1 mg.
# [6] = system: patient with sepsis; experiment: Case History 2: immunodeficiency caused by sepsis (Patient B); assay type: in vivo, human
# Protocol: Patient B was in the clinic with a diagnosis of sepsis. Immunodeficiency was confirmed by laboratory tests. Bestim was administered in the standard 5 daily intramuscular doses of 0.1 mg.
# [7] = system: murine thymocytes; experiment: Murine thymocyte differentiation after intraperitoneal injection; assay type: in vivo, CBA mice; details: for Percent of thymocytes expressing L3T4 / Percent of thymocytes expressing Lyt2 / Percent of thymocytes expressing Thy-1: 24 hours
# Protocol: Bestim was injected into 3-month old CBA mice at doses ranging from 10 ng/kg to 100 μg/kg intraperitoneally. Mice were killed by cervical dislocation 24 hours after injection, the thymus gland removed, and the cells isolated by centrifugation and washed in RPMI-1640 medium. Expression of surface differentiation antigens were measured using monoclonal antibodies to L3T4 (T-helper marker), Lyt 2 (T-cytotoxic marker) and Thy-1 (common T-lymphocyte marker) molecules in a cytotoxicity assay using complement-dependent cell lysis (Terasaki et al., 1972). Dead cells were counted microscopically after eosin staining.
# [8] = system: murine spleen cells; experiment: IL-2 production by Concanavalin A activated murine spleen cells (CTLL-2 cell assay); assay type: cell-based, CBA mice; details: for IL-2 production by murine spleen cells: Table 2; for interleukin-2 production by murine spleen cells: Table 6
# Protocol: Spleen cells from CBA mice were cultured in tissue culture plates at a 10^6 cells/ml in RPMI-1640 medium supplemented with 10% fetal calf serum, 2 mM L-glutamine, and 80 μg/ml of Gentamycin. 1 μg/ml of Concanavalin A was used to activate basal IL-2 production from murine spleen lymphocytes. Bestim was added to cell cultures at the "0" time. After 36 hours supernatants were collected, centrifuged at 800 xg and IL-2 levels were measured in a CTLL-2 cell assay (Gillis et al., "T-cell Growth Factor: Parameters of Production and Quantitative Assay for Activity," J. Immunol., 120: 2027-2032, 1978). […] However, due to the variations in the method for IL-2 measurements clear dose-response comparisons could not be achieved.
# IL-2 production studies have been performed using murine spleen lymphocytes activated with Concanavalin A. Spleen cells from CBA mice were cultured in a tissue culture plates at a 1×10^6 /ml concentration in RPMI-1640 medium supplemented with 10% fetal calf serum, 2 mM L-glutamine,80 μg/ml Gentamycin and 1 μg/ml Concanavalin A as an inducer of basal level IL-2 synthesis. Bestim at various concentration was added to cell cultures at the "0" time. After 36 hours supernatants were collected, centrifuged at 800 xg and used for IL-2 levels determination in a CTLL-2 cell assay (Gillis et al., 1978). IL-2-dependent CTLL-2 cells were grown in RPMI-1640 medium in the presence of 1-2 U/ml recombinant IL-2 as a growth factor. Before assay, cells were washed twice to remove IL-2 from the medium. After this wash tested supernatants were added and cells were incubated for 36 hours. IL-2-induced proliferation was assayed using a ^3 H-thymidine incorporation method.
# [9] = system: dogs; experiment: Subacute toxicity, repeated intramuscular injection, dogs; assay type: in vivo
# Protocol: as §1, §2
# dogs: 1 mg/kg, 10 mg/kg and 100 mg/kg, administered intramuscularly daily for 1 month and for 3 months.
# [10] = mice, single 5000.0 mg/kg intramuscular, 14 days
# [11] = After Bestim Therapy (5 daily i.m. 0.1 mg)
smiles,measurement,setting,value
"N[C@@H](CCC(=O)N[C@@H](Cc1c[nH]c2ccccc12)C(=O)O)C(=O)O [Bestim, γ-L-glutamyl-L-tryptophan]","morphological appearance of all organs, macroscopic and histological","[1]; rats, 1 and 100 mg/kg i.m. daily for 3 and 6 months",normal
same,body weight,"[1]; rats, both doses (1 and 100 mg/kg i.m. daily)",slight increase in body weight
same,tested dose relative to expected doses for therapeutic trials,[1]; repeated administration,~100 fold
same,deaths,[2]; [10],No deaths were observed
same,"general appearance, behavior, body weight, hematological, biochemical and physiological indices, macroscopic and histopathological examination of internal organs",[2]; [10],all within normal limits
same,tested dose relative to expected doses for therapeutic trials,[2]; single administration,"~5,000,000 fold"
same,inflammation in the prostate,[3],inflammation in the prostate was ameliorated
same,deaths,[4],No deaths were observed
same,"general appearance, behavior, body weight, hematological, biochemical and physiological indices, macroscopic and histopathological examination of internal organs",[4],all within normal limits
same,Lymphocytes,[5]; After Bestim Therapy,1800 per mm^3
same,T-Lymphocytes (CD3),[5]; After Bestim Therapy,60%
same,T-helper lymphocytes (CD4),[5]; After Bestim Therapy,35%
same,White blood cells,[5]; [11],6.9 × 10^3 per mm^3
same,Lymphocytes,[5]; Before Therapy,200 per mm^3
same,T-Lymphocytes (CD3),[5]; Before Therapy,23%
same,T-helper lymphocytes (CD4),[5]; Before Therapy,14%
same,White blood cells,[5]; Before Therapy,5.5 × 10^3 per mm^3
same,Lymphocytes,[6]; After Bestim Therapy,1370 per mm^3
same,T-Lymphocytes (CD3),[6]; After Bestim Therapy,75%
same,T-helper lymphocytes (CD4),[6]; After Bestim Therapy,50%
same,White blood cells,[6]; [11],9.8 × 10^3 per mm^3
same,Lymphocytes,[6]; Before Therapy,560 per mm^3
same,T-Lymphocytes (CD3),[6]; Before Therapy,23%
same,T-helper lymphocytes (CD4),[6]; Before Therapy,11%
same,White blood cells,[6]; Before Therapy,10.2 × 10^3 per mm^3
same,Percent of thymocytes expressing L3T4,[7]; 0.01 μg/kg i.p.,40 ± 8%
same,Percent of thymocytes expressing Lyt2,[7]; 0.01 μg/kg i.p.,45 ± 5%
same,Percent of thymocytes expressing Thy-1,[7]; 0.01 μg/kg i.p.,95 ± 3%
same,Percent of thymocytes expressing L3T4,[7]; 0.1 μg/kg i.p.,55 ± 1%
same,Percent of thymocytes expressing Lyt2,[7]; 0.1 μg/kg i.p.,44 ± 2%
same,Percent of thymocytes expressing Thy-1,[7]; 0.1 μg/kg i.p.,89 ± 2%
same,Percent of thymocytes expressing L3T4,[7]; 1 μg/kg i.p.,54 ± 1%
same,Percent of thymocytes expressing Lyt2,[7]; 1 μg/kg i.p.,46 ± 1%
same,Percent of thymocytes expressing Thy-1,[7]; 1 μg/kg i.p.,91 ± 1%
same,Percent of thymocytes expressing L3T4,[7]; 10 μg/kg i.p.,64 ± 1%
same,Percent of thymocytes expressing Lyt2,[7]; 10 μg/kg i.p.,47 ± 2%
same,Percent of thymocytes expressing Thy-1,[7]; 10 μg/kg i.p.,90 ± 1%
same,Percent of thymocytes expressing L3T4,[7]; 100 μg/kg i.p.,70 ± 1%
same,Percent of thymocytes expressing Lyt2,[7]; 100 μg/kg i.p.,48 ± 1%
same,Percent of thymocytes expressing Thy-1,[7]; 100 μg/kg i.p.,91 ± 0%
same,T-lymphocyte subset induced to differentiate in murine thymus,[7]; conclusion from Table 3,preferentially induces differentiation of a subset of T-helper lymphocytes
same,IL-2 production by murine spleen cells,"[8]; peptide 0.001 μg/ml, 36 hours",159 ± 13
same,IL-2 production by murine spleen cells,[8]; peptide 0.01 μg/ml,134 ± 8
same,IL-2 production by murine spleen cells,[8]; peptide 0.1 μg/ml,98 ± 5
same,IL-2 production by murine spleen cells,[8]; peptide 1.0 μg/ml,157 ± 10
same,IL-2 production by murine spleen cells,[8]; peptide 10 μg/ml,95 ± 4
same,IL-2 production by murine spleen cells,[8]; peptide 100 μg/ml,112 ± 3
same,interleukin-2 production by murine spleen cells,[8]; peptide 0.001 μg/ml,149 ± 2
same,interleukin-2 production by murine spleen cells,[8]; peptide 0.01 μg/ml,162 ± 4
same,interleukin-2 production by murine spleen cells,[8]; peptide 0.1 μg/ml,172 ± 9
same,interleukin-2 production by murine spleen cells,[8]; peptide 1.0 μg/ml,271 ± 11
same,interleukin-2 production by murine spleen cells,[8]; peptide 10 μg/ml,160 ± 8
same,interleukin-2 production by murine spleen cells,[8]; peptide 100 μg/ml,186 ± 6
same,effect on IL-2 secretion from cells,[8]; conclusion from Table 2,enhances IL-2 secretion from cells at low doses
same,macroscopic and histological examination of organs,"[9]; dogs, 1, 10 and 100 mg/kg i.m. daily for 1 and 3 months",no significant changes
same,local inflammatory reactions at the site of injection,"[9]; dogs, repeated i.m. injection",no local inflammatory reactions at the site of injection

# Reference: patent US5744452A, “γ-L-glutamyl containing immunomodulator compounds and methods therewith” (Wei; Edward T., priority 1995, dated 1998)
